From patent US20210395239A1 (Hoffmann-La Roche Inc., priority 2018, published 2021)

What follows are compounds tested against T1, hTLR9 (Homo sapiens, UniProt Q9NR96) (assay: HEK293-Blue-hTLR-9 cells assay (SEAP reporter, ODN2006 stimulation)). Conditions: HEK293-Blue-hTLR9 cells, ODN2006, 20 hrs; read-out: HEK/hTLR9 IC50.
T1 sequence (Q9NR96 26-1032): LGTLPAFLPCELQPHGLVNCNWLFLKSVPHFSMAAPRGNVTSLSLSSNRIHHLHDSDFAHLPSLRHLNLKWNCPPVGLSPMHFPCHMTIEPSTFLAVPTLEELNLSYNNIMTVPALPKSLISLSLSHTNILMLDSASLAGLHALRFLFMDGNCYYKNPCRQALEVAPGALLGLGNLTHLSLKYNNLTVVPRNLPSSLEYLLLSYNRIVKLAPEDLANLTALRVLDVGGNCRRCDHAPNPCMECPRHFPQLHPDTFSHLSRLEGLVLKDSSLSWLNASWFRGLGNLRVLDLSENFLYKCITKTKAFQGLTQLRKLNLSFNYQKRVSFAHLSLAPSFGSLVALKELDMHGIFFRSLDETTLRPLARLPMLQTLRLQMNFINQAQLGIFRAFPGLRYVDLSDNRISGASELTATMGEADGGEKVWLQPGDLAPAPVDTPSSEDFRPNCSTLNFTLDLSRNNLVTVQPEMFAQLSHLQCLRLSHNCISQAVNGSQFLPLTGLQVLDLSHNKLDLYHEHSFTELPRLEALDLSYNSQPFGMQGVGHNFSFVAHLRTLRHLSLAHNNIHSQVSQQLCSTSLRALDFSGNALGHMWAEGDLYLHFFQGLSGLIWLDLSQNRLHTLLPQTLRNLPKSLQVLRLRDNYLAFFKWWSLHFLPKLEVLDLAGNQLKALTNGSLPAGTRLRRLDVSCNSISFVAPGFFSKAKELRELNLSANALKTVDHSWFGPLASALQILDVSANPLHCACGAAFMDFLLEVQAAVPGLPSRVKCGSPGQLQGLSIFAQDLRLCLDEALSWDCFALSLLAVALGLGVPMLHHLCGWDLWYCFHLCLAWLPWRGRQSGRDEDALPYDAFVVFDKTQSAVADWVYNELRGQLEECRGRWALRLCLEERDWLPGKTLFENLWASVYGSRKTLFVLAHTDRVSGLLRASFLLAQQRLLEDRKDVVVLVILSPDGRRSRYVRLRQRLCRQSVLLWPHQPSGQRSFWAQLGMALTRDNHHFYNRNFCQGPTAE
Type: cell-based
Design: host or cells: HEK293 (HEK-Blue hTLR9)
Summary of the method: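 Antagonism read as lowered SEAP reporter absorbance (620–655 nm, QUANTI-Blue, 2 h, 37 °C) in supernatants. Before that, ODN2006-stimulated HEK293-Blue cells stably expressing human TLR9 were exposed to compound dilutions at 1% final DMSO for 20 h at 37 °C.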

Q: Which IC50 does the source give for `Cc1cc(N2CCN(C[C@H]3CN(c4ccc(C#N)c5ncccc45)C[C@@H](C)O3)CC2)nc(N2C[C@H](N)C[C@H](F)C2)n1` (relative stereo) [Example 74, 5-[(2R,6S)-2-methyl-6-[[4-[6-methyl-2-[cis-3-amino-5-fluoro-1-piperidyl]pyrimidin-4-yl]piperazin-1-yl]methyl]morpholin-4-yl]quinoline-8-carbonitrile] here?
A: The IC50 was 72 nM.

Q: `Cc1cc(N2CCN(C[C@H]3CN(c4ccc(C#N)c5ncccc45)C[C@@H](C)O3)CC2)nc(N2C[C@H](N)C[C@@H](F)C2)n1` (relative stereo) [Example 75, 5-[(2R,6S)-2-methyl-6-[[4-[6-methyl-2-[trans-3-amino-5-fluoro-1-piperidyl]pyrimidin-4-yl]piperazin-1-yl]methyl]morpholin-4-yl]quinoline-8-carbonitrile] was tested. Which IC50 did it give?
A: Its IC50 is 57 nM.

Q: How did the IC50 turn out when `CO[C@H]1CN(c2nc(C)cc(N3CCN(C[C@H]4CN(c5ccc(C#N)c6ncccc56)C[C@@H](C)O4)CC3)n2)C[C@@H]1N` (single isomer, unassigned) [Example 69A] was run?
A: Its IC50 is 54 nM.

Q: For `CO[C@@H]1CN(c2nc(C)cc(N3CCN(C[C@H]4CN(c5ccc(C#N)c6ncccc56)C[C@@H](C)O4)CC3)n2)C[C@H]1N` (single isomer, unassigned) [Example 69B], which IC50 is on record?
A: Its IC50 is 70 nM.

Q: Which IC50 does the source give for `Cc1cc(N2CCN(C[C@H]3CN(c4ccc(C#N)c5ncccc45)C[C@@H](C)O3)CC2)nc(N2CC[C@@H](F)C(N)C2)n1` (single isomer, unassigned) [Example 84] here?
A: The IC50 was 104 nM.

Q: Which IC50 does the source give for `COC1CN(c2nc(C)cc(N3CCN(C[C@H]4CN(c5ccc(C#N)c6ncccc56)C[C@@H](C)O4)CC3)n2)CC1N` (single isomer, unassigned) [Example 88] here?
A: Its IC50 is 71 nM.

Q: How did the IC50 turn out when `COC1CNCC1Nc1nc(C)cc(N2CCN(C[C@H]3CN(c4ccc(C#N)c5ncccc45)C[C@@H](C)O3)CC2)n1` (stereo in doubt) [Example 70, 5-[(2S,6R)-2-[[4-[2-[[(3R,4R)-4-methoxypyrrolidin-3-yl]amino]-6-methyl-pyrimidin-4-yl]piperazin-1-yl]methyl]-6-methyl-morpholin-4-yl]quinoline-8-carbonitrile] was run?
A: The IC50 was 80 nM.

Q: For `Cc1cc(N2CCN(C[C@H]3CN(c4ccc(C#N)c5ncccc45)C[C@@H](C)O3)CC2)nc(NC2CNCC2F)n1` (stereo in doubt) [Example 73, 5-[(2S,6R)-2-[[4-[2-[[(3S,4R)-4-fluoropyrrolidin-3-yl]amino]-6-methyl-pyrimidin-4-yl]piperazin-1-yl]methyl]-6-methyl-morpholin-4-yl]quinoline-8-carbonitrile], which IC50 is on record?
A: Its IC50 is 69 nM.

Q: Which IC50 does the source give for `Cc1cc(N2CCN(C[C@H]3CN(c4ccc(C#N)c5ncccc45)C[C@@H](C)O3)CC2)nc(N2CC[C@@H](N)C(F)C2)n1` (stereo in doubt) [Example 82, 5-[(2S,6R)-2-[[4-[2-[(3R,4R)-4-amino-3-fluoro-1-piperidyl]-6-methyl-pyrimidin-4-yl]piperazin-1-yl]methyl]-6-methyl-morpholin-4-yl]quinoline-8-carbonitrile] here?
A: Its IC50 is 56 nM.

Q: With `CO[C@H]1CN(c2nc(C)cc(N3CCN(C[C@H]4CN(c5ccc(C#N)c6ncccc56)C[C@@H](C)O4)CC3)n2)CCC1N` (stereo in doubt) [Example 90, 5-[(2S,6R)-2-[[4-[2-[(3S,4S)-4-amino-3-methoxy-1-piperidyl]-6-methyl-pyrimidin-4-yl]piperazin-1-yl]methyl]-6-methyl-morpholin-4-yl]quinoline-8-carbonitrile] as the compound, how does the IC50 read?
A: The IC50 was 54 nM.

Q: How did the IC50 turn out when `Cc1cc(N2CCN(C[C@H]3CN(c4ccc(C#N)c5ncccc45)C[C@@H](C)O3)CC2)nc(N[C@@H]2CNC[C@@H]2F)n1` [Example 71, 5-[(2S,6R)-2-[[4-[2-[[(3R,4S)-4-fluoropyrrolidin-3-yl]amino]-6-methyl-pyrimidin-4-yl]piperazin-1-yl]methyl]-6-methyl-morpholin-4-yl]quinoline-8-carbonitrile] was run?
A: The IC50 was 66 nM.

Q: Which IC50 does the source give for `CO[C@@H]1CN(c2nc(C)cc(N3CCN(C[C@H]4CN(c5ccc(C#N)c6ncccc56)C[C@@H](C)O4)CC3)n2)C[C@@H]1N` [Example 72, 5-[(2S,6R)-2-[[4-[2-[(3S,4R)-3-amino-4-methoxy-pyrrolidin-1-yl]-6-methyl-pyrimidin-4-yl]piperazin-1-yl]methyl]-6-methyl-morpholin-4-yl]quinoline-8-carbonitrile] here?
A: The IC50 was 46 nM.

Q: For `Cc1cc(N2CCN(C[C@H]3CN(c4ccc(C#N)c5ncccc45)C[C@@H](C)O3)CC2)nc(N[C@@H]2CNC[C@H]2F)n1` [Example 76, 5-[(2S,6R)-2-[[4-[2-[[(3R,4R)-4-fluoropyrrolidin-3-yl]amino]-6-methyl-pyrimidin-4-yl]piperazin-1-yl]methyl]-6-methyl-morpholin-4-yl]quinoline-8-carbonitrile], which IC50 is on record?
A: The IC50 was 50 nM.

Q: With `Cc1cc(N2CCN(C[C@H]3CN(c4ccc(C#N)c5ncccc45)C[C@@H](C)O3)CC2)nc(N2C[C@@H](N)C[C@@H](F)C2)n1` [Example 77, 5-[(2S,6R)-2-[[4-[2-[(3S,5R)-3-amino-5-fluoro-1-piperidyl]-6-methyl-pyrimidin-4-yl]piperazin-1-yl]methyl]-6-methyl-morpholin-4-yl]quinoline-8-carbonitrile] as the compound, how does the IC50 read?
A: Its IC50 is 56 nM.

Q: For `Cc1cc(N2CCN(C[C@H]3CN(c4ccc(C#N)c5ncccc45)C[C@@H](C)O3)CC2)nc(N2CC[C@@H](N)[C@@H](F)C2)n1` [Example 78, 5-[(2S,6R)-2-[[4-[2-[(3S,4R)-4-amino-3-fluoro-1-piperidyl]-6-methyl-pyrimidin-4-yl]piperazin-1-yl]methyl]-6-methyl-morpholin-4-yl]quinoline-8-carbonitrile], which IC50 is on record?
A: Its IC50 is 65 nM.

Q: How did the IC50 turn out when `Cc1cc(N2CCN(C[C@H]3CN(c4ccc(C#N)c5ncccc45)C[C@@H](C)O3)CC2)nc(N2C[C@@H](N)[C@H](F)C2)n1` [Example 79, 5-[(2S,6R)-2-[[4-[2-[(3R,4R)-3-amino-4-fluoro-pyrrolidin-1-yl]-6-methyl-pyrimidin-4-yl]piperazin-1-yl]methyl]-6-methyl-morpholin-4-yl]quinoline-8-carbonitrile] was run?
A: Its IC50 is 63 nM.

Q: For `Cc1cc(N2CCN(C[C@H]3CN(c4ccc(C#N)c5ncccc45)C[C@@H](C)O3)CC2)nc(N2CC(N)CC(F)(F)C2)n1` (stereo partly drawn) [Example 80, 5-[(2S,6R)-2-[[4-[2-(5-amino-3,3-difluoro-1-piperidyl)-6-methyl-pyrimidin-4-yl]piperazin-1-yl]methyl]-6-methyl-morpholin-4-yl]quinoline-8-carbonitrile], which IC50 is on record?
A: Its IC50 is 120 nM.

Q: How did the IC50 turn out when `Cc1cc(N2CCN(C[C@H]3CN(c4ccc(C#N)c5ncccc45)C[C@@H](C)O3)CC2)nc(N2CCNC(C(C)(C)O)C2)n1` (stereo partly drawn) [Example 81, 5-[(2S,6R)-2-[[4-[2-[3-(1-hydroxy-1-methyl-ethyl)piperazin-1-yl]-6-methyl-pyrimidin-4-yl]piperazin-1-yl]methyl]-6-methyl-morpholin-4-yl]quinoline-8-carbonitrile] was run?
A: The IC50 was 46 nM.

Q: How did the IC50 turn out when `Cc1cc(N2CCN(C[C@H]3CN(c4ccc(C#N)c5ncccc45)C[C@@H](C)O3)CC2)nc(N2CC[C@@H](F)[C@@H](N)C2)n1` [Example 83, 5-[(2R,6S)-2-methyl-6-[[4-[6-methyl-2-[(3S,4R)-3-amino-4-fluoro-1-piperidyl]-pyrimidin-4-yl]piperazin-1-yl]methyl]morpholin-4-yl]quinoline-8-carbonitrile] was run?
A: Its IC50 is 96 nM.

Q: Which IC50 does the source give for `Cc1cc(N2CCN(C[C@H]3CN(c4ccc(C#N)c5ncccc45)C[C@@H](C)O3)CC2)nc(N2CCC(N)C(F)(F)C2)n1` (stereo partly drawn) [Example 86, 5-[(2S,6R)-2-[[4-[2-(4-amino-3,3-difluoro-1-piperidyl)-6-methyl-pyrimidin-4-yl]piperazin-1-yl]methyl]-6-methyl-morpholin-4-yl]quinoline-8-carbonitrile] here?
A: Its IC50 is 189 nM.

Q: How did the IC50 turn out when `Cc1cc(N2CCN(C[C@H]3CN(c4ccc(C#N)c5ncccc45)C[C@@H](C)O3)CC2)nc(N2CC(N)C2)n1` [Example 87, 5-[(2S,6R)-2-[[4-[2-(3-aminoazetidin-1-yl)-6-methyl-pyrimidin-4-yl]piperazin-1-yl]methyl]-6-methyl-morpholin-4-yl]quinoline-8-carbonitrile] was run?
A: Its IC50 is 75 nM.

Q: Which IC50 does the source give for `C[C@@H]1CN(c2ccc(C#N)c3ncccc23)C[C@H](CN2CCN(c3ccccc3C3CNCCO3)CC2)O1` (stereo partly drawn) [Example 89, 5-[(2R,6S)-2-methyl-6-[[4-(2-morpholin-2-ylphenyl)piperazin-1-yl]methyl]morpholin-4-yl]quinoline-8-carbonitrile] here?
A: Its IC50 is 99 nM.
